# Measurements as given in ChEMBL document CHEMBL1255421, “In vitro fungicidal activities of echinocandins against Candida metapsilosis, C. orthopsilosis, and C. parapsilosis evaluated by time-kill studies” (2010).
# The source made the active and inactive calls. No cut-off for these calls is given here. Numbered stars: 1 amine (or outer) side, 2 acyl side, 3 side chain; on linkers, the order of the positions; unused ones are H or OH. Bridge positions count the residues as written; N and C are the ends. Square brackets hold non-standard residues; d marks the D form. Peptide text beside a SMILES is read from it. * marks the point of attachment. hTyr(3S-OH,4S-OH,3'-OSO3H) = N[C@H](C(=O)O)[C@H](O)[C@@H](O)c1ccc(O)c(OS(=O)(=O)O)c1; Orn(4R-OH,5R-OH) = O=C([C@H](C[C@@H](O)[C@@H](O)N[*:3])N[*:1])[*:2]; Pro(3S-OH,4S-Me) = C[C@H]1CN[C@H](C(=O)O)[C@H]1O; X1 = CCCCCOc1ccc(-c2cc(-c3ccc(C(=O)*)cc3)no2)cc1; Gln(3R-OH) = NC(=O)C[C@@H](O)[C@H](N)C(=O)O; Hyp = O=C(O)[C@@H]1C[C@@H](O)CN1
# Legend:
# [1] = tested on: Candida orthopsilosis; assay: Antifungal activity against Candida orthopsilosis clinical isolate bloodstream form assessed as time required for 99.9% reduction in fungal growth at 4 mg/L by time-kill assay; format: functional
# [2] = tested on: Candida orthopsilosis; assay: Antifungal activity against Candida orthopsilosis clinical isolate bloodstream form assessed as time required for 99.9% reduction in fungal growth at 16 mg/L by time-kill assay; format: functional
# [3] = tested on: Candida orthopsilosis; assay: Antifungal activity against Candida orthopsilosis clinical isolate bloodstream form assessed as time required for 99.9% reduction in fungal growth at 32 mg/L by time-kill assay; format: functional
# [4] = tested on: Candida metapsilosis; assay: Antifungal activity against Candida metapsilosis clinical isolate bloodstream form assessed as time required for 50% reduction in fungal growth at 1 mg/L by time-kill assay; format: functional
# [5] = tested on: Candida metapsilosis; assay: Antifungal activity against Candida metapsilosis clinical isolate bloodstream form assessed as time required for 50% reduction in fungal growth at 32 mg/L by time-kill assay; format: functional
# [6] = tested on: Candida metapsilosis; assay: Antifungal activity against Candida metapsilosis clinical isolate bloodstream form assessed as time required for 90% reduction in fungal growth at 0.25 mg/L by time-kill assay; format: functional
# [7] = tested on: Candida metapsilosis; assay: Antifungal activity against Candida metapsilosis clinical isolate bloodstream form assessed as time required for 90% reduction in fungal growth at 1 mg/L by time-kill assay; format: functional
# [8] = tested on: Candida metapsilosis; assay: Antifungal activity against Candida metapsilosis clinical isolate bloodstream form assessed as time required for 90% reduction in fungal growth at 16 mg/L by time-kill assay; format: functional
# [9] = tested on: Candida metapsilosis; assay: Antifungal activity against Candida metapsilosis clinical isolate bloodstream form assessed as time required for 90% reduction in fungal growth at 32 mg/L by time-kill assay; format: functional
# [10] = tested on: Candida metapsilosis; assay: Antifungal activity against Candida metapsilosis clinical isolate bloodstream form assessed as time required for 99% reduction in fungal growth at 16 mg/L by time-kill assay; format: functional
# [11] = tested on: Candida metapsilosis; assay: Antifungal activity against Candida metapsilosis clinical isolate bloodstream form assessed as time required for 99% reduction in fungal growth at 32 mg/L by time-kill assay; format: functional
# [12] = tested on: Candida metapsilosis; assay: Antifungal activity against Candida metapsilosis clinical isolate bloodstream form assessed as time required for 99.9% reduction in fungal growth at 0.25 mg/L by time-kill assay; format: functional
# [13] = tested on: Candida metapsilosis; assay: Antifungal activity against Candida metapsilosis clinical isolate bloodstream form assessed as time required for 99.9% reduction in fungal growth at 4 mg/L by time-kill assay; format: functional
# [14] = tested on: Candida metapsilosis; assay: Antifungal activity against Candida metapsilosis clinical isolate bloodstream form assessed as time required for 99.9% reduction in fungal growth at 16 mg/L by time-kill assay; format: functional
# [15] = tested on: Candida metapsilosis; assay: Antifungal activity against Candida metapsilosis clinical isolate bloodstream form assessed as time required for 99.9% reduction in fungal growth at 32 mg/L by time-kill assay; format: functional
# [16] = tested on: Candida parapsilosis; assay: Antifungal activity against Candida parapsilosis clinical isolate bloodstream form assessed as time required for 50% reduction in fungal growth at 0.25 mg/L by time-kill assay; format: functional
# [17] = tested on: Candida parapsilosis; assay: Antifungal activity against Candida parapsilosis clinical isolate bloodstream form assessed as time required for 50% reduction in fungal growth at 4 mg/L by time-kill assay; format: functional
# [18] = tested on: Candida parapsilosis; assay: Antifungal activity against Candida parapsilosis clinical isolate bloodstream form assessed as time required for 50% reduction in fungal growth at 32 mg/L by time-kill assay; format: functional
# [19] = tested on: Candida parapsilosis; assay: Antifungal activity against Candida parapsilosis clinical isolate bloodstream form assessed as time required for 90% reduction in fungal growth at 1 mg/L by time-kill assay; format: functional
# [20] = tested on: Candida parapsilosis; assay: Antifungal activity against Candida parapsilosis clinical isolate bloodstream form assessed as time required for 90% reduction in fungal growth at 4 mg/L by time-kill assay; format: functional
# [21] = tested on: Candida parapsilosis; assay: Antifungal activity against Candida parapsilosis clinical isolate bloodstream form assessed as time required for 99% reduction in fungal growth at 1 mg/L by time-kill assay; format: functional
# [22] = tested on: Candida parapsilosis; assay: Antifungal activity against Candida parapsilosis clinical isolate bloodstream form assessed as time required for 99% reduction in fungal growth at 4 mg/L by time-kill assay; format: functional
# [23] = tested on: Candida parapsilosis; assay: Antifungal activity against Candida parapsilosis clinical isolate bloodstream form assessed as time required for 99% reduction in fungal growth at 16 mg/L by time-kill assay; format: functional
# [24] = tested on: Candida parapsilosis; assay: Antifungal activity against Candida parapsilosis clinical isolate bloodstream form assessed as time required for 99.9% reduction in fungal growth at 4 mg/L by time-kill assay; format: functional
# [25] = tested on: Candida parapsilosis; assay: Antifungal activity against Candida parapsilosis clinical isolate bloodstream form assessed as time required for 99.9% reduction in fungal growth at 16 mg/L by time-kill assay; format: functional
# [26] = tested on: Candida metapsilosis; assay: Antifungal activity against Candida metapsilosis clinical isolate bloodstream form assessed as time required for 99.9% reduction in fungal growth at 1 mg/L by time-kill assay; format: functional
# [27] = tested on: Candida orthopsilosis; assay: Fungicidal activity against Candida orthopsilosis isolate CP-131 bloodstream form by CLSI method; format: functional; conditions: Lodderomyces orthopsilosis
# [28] = tested on: Candida orthopsilosis; assay: Fungicidal activity against Candida orthopsilosis isolate CP-151 bloodstream form by CLSI method; format: functional; conditions: Lodderomyces orthopsilosis
# [29] = tested on: Candida metapsilosis; assay: Fungicidal activity against Candida metapsilosis isolate CP-133 bloodstream form by CLSI method; format: functional; conditions: Lodderomyces metapsilosis
# [30] = tested on: Candida metapsilosis; assay: Fungicidal activity against Candida metapsilosis isolate ATC193 bloodstream form by CLSI method; format: functional; conditions: Lodderomyces metapsilosis, isolate ATC-193
# [31] = tested on: Candida parapsilosis; assay: Fungicidal activity against Candida parapsilosis isolate CP-302 bloodstream form by CLSI method; format: functional; conditions: Lodderomyces parapsilosis
# [32] = tested on: Candida parapsilosis; assay: Fungicidal activity against Candida parapsilosis ATCC 22019 bloodstream form by CLSI method; format: functional; conditions: Lodderomyces parapsilosis
# [33] = tested on: Candida parapsilosis; assay: Antifungal activity against Candida parapsilosis clinical isolate bloodstream form assessed as induction of fungal killing rate at 0.03 to 32 mg/L measured at 6 hrs by time-kill assay; format: functional, organism-based
# [34] = tested on: Candida orthopsilosis; assay: Antifungal activity against Candida orthopsilosis clinical isolate bloodstream form assessed as induction of fungal killing rate at 0.03 to 32 mg/L measured at 6 hrs by time-kill assay; format: functional, organism-based
# [35] = tested on: Candida metapsilosis; assay: Antifungal activity against Candida metapsilosis clinical isolate bloodstream form assessed as mild induction of fungal death at 0.03 to 32 mg/L after 6 hrs by time-kill assay; format: functional, organism-based
# [36] = tested on: Candida orthopsilosis; assay: Antifungal activity against Candida orthopsilosis clinical isolate bloodstream form assessed as time required for 50% reduction in fungal growth at 0.25 mg/L by time-kill assay; format: functional
# [37] = tested on: Candida orthopsilosis; assay: Antifungal activity against Candida orthopsilosis clinical isolate bloodstream form assessed as time required for 90% reduction in fungal growth at 1 mg/L by time-kill assay; format: functional
# [38] = tested on: Candida orthopsilosis; assay: Antifungal activity against Candida orthopsilosis clinical isolate bloodstream form assessed as time required for 90% reduction in fungal growth at 16 mg/L by time-kill assay; format: functional
# [39] = tested on: Candida orthopsilosis; assay: Antifungal activity against Candida orthopsilosis clinical isolate bloodstream form assessed as time required for 90% reduction in fungal growth at 32 mg/L by time-kill assay; format: functional
# [40] = tested on: Candida orthopsilosis; assay: Antifungal activity against Candida orthopsilosis clinical isolate bloodstream form assessed as time required for 99% reduction in fungal growth at 0.25 mg/L by time-kill assay; format: functional
# [41] = tested on: Candida orthopsilosis; assay: Antifungal activity against Candida orthopsilosis clinical isolate bloodstream form assessed as time required for 99% reduction in fungal growth at 1 mg/L by time-kill assay; format: functional
# [42] = tested on: Candida orthopsilosis; assay: Antifungal activity against Candida orthopsilosis clinical isolate bloodstream form assessed as time required for 99% reduction in fungal growth at 16 mg/L by time-kill assay; format: functional
# [43] = tested on: Candida orthopsilosis; assay: Antifungal activity against Candida orthopsilosis clinical isolate bloodstream form assessed as time required for 99% reduction in fungal growth at 32 mg/L by time-kill assay; format: functional
smiles,measurement,setting,value
CC[C@H](C)C[C@H](C)CCCCCCCCC(=O)N[C@H]1C[C@@H](O)[C@@H](NCCN)NC(=O)[C@@H]2[C@@H](O)CCN2C(=O)[C@H]([C@H](O)CCN)NC(=O)[C@H]([C@H](O)[C@@H](O)c2ccc(O)cc2)NC(=O)[C@@H]2C[C@@H](O)CN2C(=O)[C@H]([C@@H](C)O)NC1=O [CASPOFUNGIN],Time,[1],34.05 h
same,Time,[2],38.46 h
same,Time,[3],>48 h
same,Time,[4],22.3 h
same,Time,[5],1.99 h
same,Time,[6],>48 h
same,Time,[7],>48 h
same,Time,[8],8.61 h
same,Time,[9],6.6 h
same,Time,[10],17.21 h
same,Time,[11],13.2 h
same,Time,[12],>48 h
same,Time,[13],>48 h
same,Time,[14],25.82 h
same,Time,[15],19.8 h
same,Time,[16],>48 h
same,Time,[17],7.7 h
same,Time,[18],1.99 h
same,Time,[19],>48 h
same,Time,[20],25.58 h
same,Time,[21],>48 h
same,Time,[22],>48 h
same,Time,[23],>48 h
same,Time,[24],>48 h
same,Time,[25],>48 h
same,Time,[26],>48 h
same,MIC,[27],2 µg/mL
same,MIC,[28],0.5 µg/mL
same,MIC,[29],0.5 µg/mL
same,MIC,[30],0.12 µg/mL
same,MIC,[31],2 µg/mL
same,MIC,[32],1 µg/mL
same,Activity,[33],inactive
same,Activity,[34],inactive
same,Activity,[35],Active
same,Time,[36],17.5 h
same,Time,[37],24.75 h
same,Time,[38],12.82 h
same,Time,[39],34.97 h
same,Time,[40],>48 h
same,Time,[41],>48 h
same,Time,[42],25.64 h
same,Time,[43],>48 h
"CCCCCOc1ccc(-c2cc(-c3ccc(C(=O)N[C@H]4C[C@@H](O)[C@@H](O)NC(=O)[C@@H]5[C@@H](O)[C@@H](C)CN5C(=O)[C@H]([C@H](O)CC(N)=O)NC(=O)[C@H]([C@H](O)[C@@H](O)c5ccc(O)c(OS(=O)(=O)O)c5)NC(=O)[C@@H]5C[C@@H](O)CN5C(=O)[C@H]([C@@H](C)O)NC4=O)cc3)no2)cc1 [MICAFUNGIN] (X1-[Orn(4R-OH,5R-OH)]T[Hyp][hTyr(3S-OH,4S-OH,3'-OSO3H)][Gln(3R-OH)][Pro(3S-OH,4S-Me)]; lactam 1-C)",Time,[1],16.59 h
same,Time,[2],13.76 h
same,Time,[3],15.34 h
same,Time,[4],3.06 h
same,Time,[5],1.43 h
same,Time,[6],>48 h
same,Time,[7],10.15 h
same,Time,[8],4.8 h
same,Time,[9],4.76 h
same,Time,[10],9.61 h
same,Time,[11],9.53 h
same,Time,[12],>48 h
same,Time,[13],17.68 h
same,Time,[14],14.41 h
same,Time,[15],14.29 h
same,Time,[16],inactive
same,Time,[17],17.6 h
same,Time,[18],6.16 h
same,Time,[19],inactive
same,Time,[20],>48 h
same,Time,[21],inactive
same,Time,[22],>48 h
same,Time,[23],>48 h
same,Time,[24],>48 h
same,Time,[25],>48 h
same,Time,[26],30.46 h
same,MIC,[27],0.25 µg/mL
same,MIC,[28],0.25 µg/mL
same,MIC,[29],0.12 µg/mL
same,MIC,[30],0.25 µg/mL
same,MIC,[31],1 µg/mL
same,MIC,[32],0.5 µg/mL
same,Activity,[33],inactive
same,Activity,[34],inactive
same,Activity,[35],Active
same,Time,[36],15.93 h
same,Time,[37],10.13 h
same,Time,[38],4.59 h
same,Time,[39],5.11 h
same,Time,[40],>48 h
same,Time,[41],20.26 h
same,Time,[42],9.17 h
same,Time,[43],10.22 h
